According to patent US20240033272A1, “USE OF C[…] THE TREATMENT OF SEIZURES ASSOCIATED WITH HERPES SIMPLEX VIRUS” (GW Research Limited, priority 2020, published 2024):

Tested on: patients diagnosed with herpes simplex virus (seizures associated with herpes simplex virus)
Test: Open label, expanded-access program: seizure frequency recorded by caregivers in a diary, change relative to baseline
Assay type: in vivo, human
Design: Reduction in myoclonic seizures over the treatment period / Reduction in absence seizures over the treatment period / Reduction in focal seizures with impairment over the treatment period / Reduction in tonic-clonic seizures over the treatment period / Reduction in atonic seizures over the treatment period / Reduction in tonic seizures over the treatment period: concentration or dose not given beside the values; Seizure frequency, tonic-clonic / Seizure frequency, myoclonic / Seizure frequency, absence / Seizure frequency, focal with impairment / Seizure frequency, tonic / Seizure frequency, focal without impairment / Seizure frequency, atonic: unit not given here
Conditions: for Seizure frequency, atonic: baseline 20.0
Procedure: Subjects were required to be on one or more AEDs at stable doses for a minimum of two weeks prior to baseline and to have stable vagus nerve stimulation (VNS) settings and ketogenic diet ratios for a minimum of four weeks prior to baseline.
Modifications were made to concomitant AEDs as per clinical indication.
Seizure frequency, intensity, and duration were recorded by caregivers in a diary during a baseline period of at least 28 days. Changes in seizure frequency relative to baseline were calculated after at least 2 weeks and at defined timepoints of treatment.
Patients may be defined as responders if they had more than 50% reduction in seizure frequency compared to baseline. The percent change in seizure frequency was calculated as follows: […]
The percent change of seizure frequency may be calculated for any time interval where seizure number has been recorded. For the purpose of this example the percent change of seizure frequency for the end of the treatment period was calculated as follows: […]

[1] = Patient 1, treated for 48 weeks, vs baseline
[2] = Patient 2, 4 weeks, CBD 25.0 mg/kg/day, baseline 8.0
[3] = Patient 2, 8 weeks, CBD 25.0 mg/kg/day, baseline 8.0
[4] = Patient 2, 24 weeks, CBD 25.0 mg/kg/day, baseline 8.0
[5] = Patient 3, treated for 108 weeks, vs baseline

C=C(C)[C@@H]1CCC(C)=C[C@H]1c1c(O)cc(CCCCC)cc1O [CBD, cannabidiol]
Time of treatment after which patient became completely seizure free, focal seizures with impairment (Patient 1): 24 weeks | Time of treatment after which patient became completely seizure free, myoclonic seizures (Patient 1): 8 weeks | Seizure frequency, tonic-clonic (Patient 1, 4 weeks, CBD 5.0 mg/kg/day, baseline 0.0): 14.0 | Seizure frequency, myoclonic (Patient 1, 4 weeks, CBD 5.0 mg/kg/day, baseline 75.0): 4.0 | Seizure frequency, focal with impairment (Patient 1, 4 weeks, CBD 5.0 mg/kg/day, baseline 100.0): 14.0 | Seizure frequency, absence (Patient 1, 4 weeks, CBD 5.0 mg/kg/day, baseline 2500.0): 800.0 | Seizure frequency, tonic-clonic (Patient 1, 8 weeks, CBD 10.0 mg/kg/day, baseline 0.0): 20.0 | Seizure frequency, myoclonic (Patient 1, 8 weeks, CBD 10.0 mg/kg/day, baseline 75.0): 0.0 | Seizure frequency, focal with impairment (Patient 1, 8 weeks, CBD 10.0 mg/kg/day, baseline 100.0): 12.0 | Seizure frequency, absence (Patient 1, 8 weeks, CBD 10.0 mg/kg/day, baseline 2500.0): 1390.0 | Seizure frequency, tonic-clonic (Patient 1, 16 weeks, CBD 15.0 mg/kg/day, baseline 0.0): 20.0 | Seizure frequency, myoclonic (Patient 1, 16 weeks, CBD 15.0 mg/kg/day, baseline 75.0): 0.0 | Seizure frequency, focal with impairment (Patient 1, 16 weeks, CBD 15.0 mg/kg/day, baseline 100.0): 7.0 | Seizure frequency, absence (Patient 1, 16 weeks, CBD 15.0 mg/kg/day, baseline 2500.0): 250.0 | Seizure frequency, tonic-clonic (Patient 1, 24 weeks, CBD 20.0 mg/kg/day, baseline 0.0): 79.6 | Seizure frequency, myoclonic (Patient 1, 24 weeks, CBD 20.0 mg/kg/day, baseline 75.0): 0.0 | Seizure frequency, focal with impairment (Patient 1, 24 weeks, CBD 20.0 mg/kg/day, baseline 100.0): 0.0 | Seizure frequency, absence (Patient 1, 24 weeks, CBD 20.0 mg/kg/day, baseline 2500.0): 398.0 | Seizure frequency, tonic-clonic (Patient 1, 36 weeks, CBD 25.0 mg/kg/day, baseline 0.0): 31.3 | Seizure frequency, myoclonic (Patient 1, 36 weeks, CBD 25.0 mg/kg/day, baseline 75.0): 0.0 | Seizure frequency, focal with impairment (Patient 1, 36 weeks, CBD 25.0 mg/kg/day, baseline 100.0): 0.0 | Seizure frequency, absence (Patient 1, 36 weeks, CBD 25.0 mg/kg/day, baseline 2500.0): 466.6 | Seizure frequency, tonic-clonic (Patient 1, 48 weeks, CBD 25.0 mg/kg/day, baseline 0.0): 16.0 | Seizure frequency, myoclonic (Patient 1, 48 weeks, CBD 25.0 mg/kg/day, baseline 75.0): 0.0 | Seizure frequency, focal with impairment (Patient 1, 48 weeks, CBD 25.0 mg/kg/day, baseline 100.0): 0.0 | Seizure frequency, absence (Patient 1, 48 weeks, CBD 25.0 mg/kg/day, baseline 2500.0): 231.7 | Reduction in absence seizures over the treatment period [1]: 90.7% | Reduction in focal seizures with impairment over the treatment period [1]: 100% | Reduction in myoclonic seizures over the treatment period [1]: 100% | Seizure frequency, tonic-clonic (Patient 2, 4 weeks, CBD 25.0 mg/kg/day, baseline 1.0): 0.0 | Seizure frequency, absence [2]: 6.0 | Seizure frequency, focal without impairment [2]: 8.0 | Seizure frequency, tonic (Patient 2, 4 weeks, CBD 25.0 mg/kg/day, baseline 32.0): 44.0 | Seizure frequency, tonic-clonic (Patient 2, 8 weeks, CBD 25.0 mg/kg/day, baseline 1.0): 0.0 | Seizure frequency, absence [3]: 0.0 | Seizure frequency, focal without impairment [3]: 0.0 | Seizure frequency, tonic (Patient 2, 8 weeks, CBD 25.0 mg/kg/day, baseline 32.0): 24.0 | Seizure frequency, tonic-clonic (Patient 2, 24 weeks, CBD 25.0 mg/kg/day, baseline 1.0): 0.5 | Seizure frequency, absence [4]: 12.0 | Seizure frequency, focal without impairment [4]: 17.0 | Seizure frequency, tonic (Patient 2, 24 weeks, CBD 25.0 mg/kg/day, baseline 32.0): 56.0 | Reduction in tonic-clonic seizures over the treatment period (Patient 2, treated for 24 weeks, vs baseline): 50% | Seizure frequency, tonic-clonic (Patient 3, 2 weeks, CBD 5.0 mg/kg/day, baseline 6.0): 8.0 | Seizure frequency, myoclonic (Patient 3, 2 weeks, CBD 5.0 mg/kg/day, baseline 32.0): 6.0 | Seizure frequency, tonic-clonic (Patient 3, 4 weeks, CBD 10.0 mg/kg/day, baseline 6.0): 5.3 | Seizure frequency, myoclonic (Patient 3, 4 weeks, CBD 10.0 mg/kg/day, baseline 32.0): 9.3 | Seizure frequency, tonic-clonic (Patient 3, 8 weeks, CBD 20.0 mg/kg/day, baseline 6.0): 6.0 | Seizure frequency, myoclonic (Patient 3, 8 weeks, CBD 20.0 mg/kg/day, baseline 32.0): 16.0 | Seizure frequency, tonic-clonic (Patient 3, 16 weeks, CBD 25.0 mg/kg/day, baseline 6.0): 11.0 | Seizure frequency, myoclonic (Patient 3, 16 weeks, CBD 25.0 mg/kg/day, baseline 32.0): 4.0 | Seizure frequency, tonic-clonic (Patient 3, 36 weeks, CBD 30.0 mg/kg/day, baseline 6.0): 2.6 | Seizure frequency, myoclonic (Patient 3, 36 weeks, CBD 30.0 mg/kg/day, baseline 32.0): 9.3 | Seizure frequency, tonic-clonic (Patient 3, 48 weeks, CBD 35.0 mg/kg/day, baseline 6.0): 7.7 | Seizure frequency, myoclonic (Patient 3, 48 weeks, CBD 35.0 mg/kg/day, baseline 32.0): 18.4 | Seizure frequency, tonic-clonic (Patient 3, 60 weeks, CBD 35.0 mg/kg/day, baseline 6.0): 6.6 | Seizure frequency, myoclonic (Patient 3, 60 weeks, CBD 35.0 mg/kg/day, baseline 32.0): 19.4 | Seizure frequency, tonic-clonic (Patient 3, 72 weeks, CBD 30.0 mg/kg/day, baseline 6.0): 3.4 | Seizure frequency, myoclonic (Patient 3, 72 weeks, CBD 30.0 mg/kg/day, baseline 32.0): 9.7 | Seizure frequency, tonic-clonic (Patient 3, 96 weeks, CBD 30.0 mg/kg/day, baseline 6.0): 1.0 | Seizure frequency, myoclonic (Patient 3, 96 weeks, CBD 30.0 mg/kg/day, baseline 32.0): 13.8 | Seizure frequency, tonic-clonic (Patient 3, 108 weeks, CBD 30.0 mg/kg/day, baseline 6.0): 0.9 | Seizure frequency, myoclonic (Patient 3, 108 weeks, CBD 30.0 mg/kg/day, baseline 32.0): 13.8 | Reduction in myoclonic seizures over the treatment period [5]: 56.9% | Reduction in tonic-clonic seizures over the treatment period [5]: 85% | Seizure frequency, tonic-clonic (Patient 4, 2 weeks, CBD 5.0 mg/kg/day, baseline 10.0): 2.0 | Seizure frequency, focal with impairment (Patient 4, 2 weeks, CBD 5.0 mg/kg/day, baseline 14.0): 4.0 | Seizure frequency, atonic (Patient 4, 2 weeks, CBD 5.0 mg/kg/day): 0.0 | Seizure frequency, tonic-clonic (Patient 4, 4 weeks, CBD 10.0 mg/kg/day, baseline 10.0): 2.0 | Seizure frequency, focal with impairment (Patient 4, 4 weeks, CBD 10.0 mg/kg/day, baseline 14.0): 2.0 | Seizure frequency, atonic (Patient 4, 4 weeks, CBD 10.0 mg/kg/day): 1.0 | Seizure frequency, tonic-clonic (Patient 4, 8 weeks, CBD 20.0 mg/kg/day, baseline 10.0): 0.0 | Seizure frequency, focal with impairment (Patient 4, 8 weeks, CBD 20.0 mg/kg/day, baseline 14.0): 0.0 | Seizure frequency, atonic (Patient 4, 8 weeks, CBD 20.0 mg/kg/day): 0.0 | Seizure frequency, tonic-clonic (Patient 4, 12 weeks, CBD 20.0 mg/kg/day, baseline 10.0): 0.0 | Seizure frequency, focal with impairment (Patient 4, 12 weeks, CBD 20.0 mg/kg/day, baseline 14.0): 0.0 | Seizure frequency, atonic (Patient 4, 12 weeks, CBD 20.0 mg/kg/day): 5.0
